From US20030215817A1, “Modulation of gene expression in formation of fatty atherosclerotic lesions” (priority 2003, published 2003)
Counter-ions that a name gives are not always drawn.

Assays:
[1] = test system: cholesterol acyl transferase; details: Soma et al. 1998; cited from earlier work
[2] = test system: Rec1_1 (MspI AAGC 288) mRNA; experiment: quantified RT-PCR, Rec1_1; assay type: in vivo, rabbit; details: for Relative Abundance Rec1_1, 20 pg F: hypercholesterolemic plus lercanidipine racemate, eight weeks, H2 (normocholesterolemic)=1.0
Description: (§1) Nineteen of the isolated DST clones were further validated using RT-PCR analyses; the data are presented in FIGS. 6-24 and in Tables 5-23, below. For each DST examined, the optimal annealing temperature and reagent conditions were determined for the corresponding set of primers (see Table 25) based on results from a preliminary experiment. In eight separate reactions, each set of primers was assayed to find the optimal conditions by adjusting the following four parameters: primer concentration, dNTP concentration, MgCl2 concentration, and number of Taq polymerase units. Once optimal conditions were determined, each DST was run in duplicate multiple simultaneous reactions which usually included at least four dilutions of template (cDNA library), plus control reactions lacking template, and six sequential data points for numbers of cycles.
(§2) Reactions were performed using “Hot Start” PCR with the Clontech TaqStart antibody system (Cat. #5400-1). Each reaction contained 1 ml of the cDNA library dilution as template, determined amounts of AmpliTaq DNA polymerase (cat. #N808-0156), MgCl2, dNTPs (GibcoBRL cat. #10297-018), primer, and Clontech TaqStart Antibody in a 20 ml final reaction volume using 10×Taq buffer II (without MgCl2). Typically, a master mix containing all components except the template was prepared and aliquoted. Various templates were then added to these master mix samples and 20 ml volumes were subsequently dispensed into individual reaction tubes. At various times during the PCR run, tubes were removed sequentially on a predetermined schedule in order to quantitate expression of the target DST over a “window” of cycle times. After amplification, the samples were quantified via fluorimetry.
(§3) PCR was performed at annealing temperatures that were five degrees above the average melting temperature of each primer pair. For primers greater than 10 bases (in a 0.05M salt solution), melting temperature was calculated using the following formula: Tm=59.9+41[% GC]−[675/Primer Length], where %GC is the decimal value. Following determination of the average melting temperature of the primer pair, the annealing temperature was determined by adding five degrees to the average melting temperature. PCR was performed using the following program: 1) 95 degrees Celsius, 3 minutes; 2) 95 degrees Celsius, 30 seconds; 3) TM+5 degrees Celsius, 30 seconds; 4) 72 degrees Celsius, for a time dependent on target length at 16 bp/second; 5) repeat steps 2-4 33 more cycles; 6) 72 degrees Celsius, 3 minutes; 7) 14 degrees Celsius, forever.
(§4) Following temperature cycling, 2 ml of the PCR reaction was added to 140 ml of a 1:280 dilution of PicoGreen (Molecular Probes cat. #P-11495 (10×100 ml)) in TE pH 7.5 in a 96-well Costar UV microtiter plate (Fisher cat. #07-200623). The samples were mixed gently for 1.5 minutes and allowed to equilibrate at room temperature in the dark for 15 minutes. The concentration of the PCR products was quantified by fluorimetry using a PerSeptive Biosystems CytoFluor series 4000 multi-well plate reader.
(§5) Background fluorescence was determined by using duplicate control samples that were cycled with all reaction components except the template. The mean value from these duplicate background control samples was subtracted from the corresponding experimental values prior to analyzing results. The sensitivity of the PicoGreen dsDNA assay is reported to be 250 pg/ml (50 pg dsDNA in a […] assay volume) using a fluorescence microplate reader such as was used in these measurements.
DST clone Rec1—1 was one of the clones further evaluated by RT-PCR. The TOGA analysis of clone Rec1—1, identified as MspI AAGC 288, is discussed above and illustrated in FIGS. 1 and 2. The results of the quantified RT-PCR for Rec1—1 are shown in FIG. 6 and in Table 5 (normalized to the normocholesterolemic control value (“H2”) at each time point). […]

[3] = arterial blood pressure in treated rabbits; assay type: in vivo; details: doses utilized (3 mg/kg/week subcutaneously)
Description: The daily doses of cholesterol (1.6 g) were given in the morning (at 08.00 hours) each mixed in 20 g of food pellets. Normal chow, up to 150 g, was added after all the cholesterol-rich diet was eaten (usually within 30 minutes). The hydrochloride salt of lercanidipine or (R)-lercanidipine (Recordati, Milano, Italy) was administered subcutaneously as a solution in 50% propylene glycol. […] Animals had free access to water and were kept in a 12 hour light-dark cycle. Blood was drawn from the central ear artery at day 29 after treatment, started in order to monitor the lercanidipine plasma level at 24 hour post-dose.

smooth muscle cell = details: in vitro (Corsini et al. 1996); cited from earlier work
[4] = test system: REC1_8 (MspI CCCG 243) mRNA; experiment: quantified RT-PCR, Rec1_8; assay type: in vivo, rabbit; details: for Relative Abundance Rec1_8, 20 pg F: hypercholesterolemic plus lercanidipine racemate, eight weeks, H2 (normocholesterolemic)=1.0
Description: as §1, §2, §3, §4
as §5, with “measurements. […]” for “measurements.”

[5] = hypercholesterolemic animals receiving lercanidipine racemate

In the case of `COC(=O)C1=C(C)NC(C)=C(C(=O)OC(C)(C)CN(C)CCC(c2ccccc2)c2ccccc2)C1c1cccc([N+](=O)[O-])c1` (racemic) [lercanidipine, lercanidipine hydrochloride], the “cholesterol acyl transferase activity” value [1] is listed as “modulate”, the “Relative Abundance Rec1_1, 20 pg F” value ([2]; cycle 26) is listed as 7.7 and the “Relative Abundance Rec1_1, 20 pg F” value ([2]; cycle 28) is listed as 4.9. For the same molecule, the “Relative Abundance Rec1_1, 20 pg F” value ([2]; cycle 30) was 3.2, the “Relative Abundance Rec1_1, 20 pg F” value ([2]; cycle 32) was 2.1 and the “Relative Abundance Rec1_1, 20 pg F” value ([2]; cycle 34) was 1.5. The “expression of Rec1_1 at 8 weeks (RT-PCR study), in words” value [2, 5] was “elevated”, the “effect on arterial blood pressure” value [3] was “did not affect” and the “smooth muscle cell migration and proliferation” value (smooth muscle cell) was “effectively reduce”. For the same molecule, the “Relative Abundance Rec1_8, 20 pg F” value ([4]; cycle 26) was 4.6, the “Relative Abundance Rec1_8, 20 pg F” value ([4]; cycle 28) was 2.2 and the “Relative Abundance Rec1_8, 20 pg F” value ([4]; cycle 30) was 3.5. The “Relative Abundance Rec1_8, 20 pg F” value ([4]; cycle 32) was 4.8, the “Relative Abundance Rec1_8, 20 pg F” value ([4]; cycle 34) was 2.1 and the “Relative Abundance Rec1_8, 20 pg F” value ([4]; cycle 36) was 2.1. For the same molecule, the “expression of Rec1_8 at 8 weeks (RT-PCR study), in words” value [4, 5] was “elevated”.
